In patent US8148391B2 (Cephalon, Inc., priority 2006, dated 2012) one finds IC50 data, which are given here for 24 compounds.

In assay [1] the target is T1, c-Met (cytoplasmic domain) (Homo sapiens, UniProt P08581).
T1 construct: 10 ng/mL c-Met (cytoplasmic domain, Invitrogen Corporation #PV3143); purchased Invitrogen Corporation PV3143
In words: c-Met Kinase Assay (same methods as for ALK, with modifications). The class given is biochemical. The following applies: c-Met kinase inhibition, 1 μM ATP (Km level); read-out: cMet Activity. The method, boiled down:
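IC50 values were fitted by variable-slope sigmoidal regression of percent inhibition against log compound concentration. Phosphorylation was read with Eu-N1 PT66 antibody after a 15 min, 37 °C reaction. The reaction was initiated with 10 ng/mL c-Met cytoplasmic domain on wells coated with 10 μg/mL PLC-γ in TBS.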

In assay [2] the target is T2, baculovirus-expressed ALK (Homo sapiens, UniProt Q9UM73).
T2 construct: host or cells: baculovirus expression system
T2 sequence (Q9UM73 19-1620): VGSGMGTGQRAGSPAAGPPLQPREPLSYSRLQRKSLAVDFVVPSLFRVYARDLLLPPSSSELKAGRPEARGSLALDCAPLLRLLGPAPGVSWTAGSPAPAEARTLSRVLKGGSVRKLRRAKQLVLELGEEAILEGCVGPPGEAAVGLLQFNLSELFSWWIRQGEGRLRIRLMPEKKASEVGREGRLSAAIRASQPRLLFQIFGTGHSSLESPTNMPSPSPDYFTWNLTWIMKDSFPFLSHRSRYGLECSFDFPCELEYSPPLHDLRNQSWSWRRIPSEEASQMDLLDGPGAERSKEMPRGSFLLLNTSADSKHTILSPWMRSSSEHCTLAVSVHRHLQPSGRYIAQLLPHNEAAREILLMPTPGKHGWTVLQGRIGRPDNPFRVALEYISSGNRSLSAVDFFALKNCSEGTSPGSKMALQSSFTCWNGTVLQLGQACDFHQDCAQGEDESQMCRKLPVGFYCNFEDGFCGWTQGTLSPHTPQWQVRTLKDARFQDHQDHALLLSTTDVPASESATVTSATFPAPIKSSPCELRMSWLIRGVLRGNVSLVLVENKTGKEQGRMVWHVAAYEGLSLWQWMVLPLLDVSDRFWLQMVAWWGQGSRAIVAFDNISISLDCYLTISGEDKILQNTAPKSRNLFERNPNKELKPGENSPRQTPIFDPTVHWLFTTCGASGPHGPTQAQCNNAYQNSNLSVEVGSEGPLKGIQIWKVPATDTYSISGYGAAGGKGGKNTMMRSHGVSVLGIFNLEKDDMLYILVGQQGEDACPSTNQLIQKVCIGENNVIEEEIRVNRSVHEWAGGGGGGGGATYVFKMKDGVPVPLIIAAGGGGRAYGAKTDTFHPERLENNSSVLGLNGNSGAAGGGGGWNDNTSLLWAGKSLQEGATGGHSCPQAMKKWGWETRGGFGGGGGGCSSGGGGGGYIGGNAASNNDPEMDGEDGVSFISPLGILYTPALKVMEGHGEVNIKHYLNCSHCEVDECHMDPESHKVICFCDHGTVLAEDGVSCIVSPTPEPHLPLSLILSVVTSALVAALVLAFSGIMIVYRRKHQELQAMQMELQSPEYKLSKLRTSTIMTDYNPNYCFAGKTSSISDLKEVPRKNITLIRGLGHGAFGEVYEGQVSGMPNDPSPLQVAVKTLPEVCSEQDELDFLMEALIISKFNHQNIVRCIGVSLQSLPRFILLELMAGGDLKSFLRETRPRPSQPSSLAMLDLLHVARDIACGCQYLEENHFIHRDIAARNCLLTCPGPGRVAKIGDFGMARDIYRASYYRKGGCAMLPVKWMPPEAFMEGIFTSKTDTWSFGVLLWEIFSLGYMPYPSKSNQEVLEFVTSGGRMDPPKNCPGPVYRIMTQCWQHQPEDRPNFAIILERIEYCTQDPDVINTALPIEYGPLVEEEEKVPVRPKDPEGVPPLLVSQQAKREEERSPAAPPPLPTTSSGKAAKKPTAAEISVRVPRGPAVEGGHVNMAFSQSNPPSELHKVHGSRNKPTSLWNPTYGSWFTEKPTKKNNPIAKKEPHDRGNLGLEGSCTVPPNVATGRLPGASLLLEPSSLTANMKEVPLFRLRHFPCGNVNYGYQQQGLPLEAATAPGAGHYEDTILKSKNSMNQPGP
In words: ALK Kinase Assay (ELISA-type, time-resolved fluorescence). The class given is biochemical. The following applies: ALK kinase inhibition, 1 μM ATP (Km level); read-out: ALK Activity. The method, boiled down:
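Wells were coated with phospholipase C-γ at 10 μg/mL in Tris-buffered saline. Adding 30 ng/ml enzyme started the reaction, which ran at 37° C for 15 minutes before Eu-N1 PT66 antibody detection. Percent inhibition versus log10 concentration gave IC50 by variable-slope fit.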
(In general: In an ELISA, binding on a coated surface is turned into a signal by an enzyme label.)

pIC50: −log10 of the molar value.

T1 sequence (P08581 956-1390 limits assumed): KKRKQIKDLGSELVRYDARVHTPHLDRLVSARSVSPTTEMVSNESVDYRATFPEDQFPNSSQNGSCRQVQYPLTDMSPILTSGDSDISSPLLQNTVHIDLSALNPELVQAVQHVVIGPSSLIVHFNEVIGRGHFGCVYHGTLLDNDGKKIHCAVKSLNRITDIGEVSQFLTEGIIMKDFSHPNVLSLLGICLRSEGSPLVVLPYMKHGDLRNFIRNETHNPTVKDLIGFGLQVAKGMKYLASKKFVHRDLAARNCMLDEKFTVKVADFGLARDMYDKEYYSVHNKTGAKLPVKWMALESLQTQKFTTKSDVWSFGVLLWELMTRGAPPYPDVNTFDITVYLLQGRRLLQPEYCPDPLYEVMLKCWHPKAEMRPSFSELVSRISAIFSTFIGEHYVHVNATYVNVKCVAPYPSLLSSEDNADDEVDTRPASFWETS

For the compound `CCN1CCc2cc(Nc3ncc(Cl)c(Nc4ccccc4C(=O)NC)n3)c(OC)cc2CC1` [Example 48, 2-[5-Chloro-2-(3-ethyl-8-methoxy-2,3,4,5-tetrahydro-1H-benzo[d]azepin-7-ylamino)-pyrimidin-4-ylamino]-N-methyl-benzamide], the figures for the pIC50 in assay [1] and in assay [2] were 5.00 to 6.00 and over 7.00, respectively.

Take `CCN1CCc2ccc(OC)c(Nc3ncc(Cl)c(Nc4ccccc4S(=O)(=O)NC)n3)c2CC1` [Example 49, 2-[5-Chloro-2-(3-ethyl-7-methoxy-2,3,4,5-tetrahydro-1H-benzo[d]azepin-6-ylamino)-pyrimidin-4-ylamino]-N-methyl-benzenesulfonamide]: the pIC50 in assay [1] is under 5.00; in assay [2] it was over 7.00.

Regarding `CCN1CCc2cc(Nc3ncc(Cl)c(Nc4ccccc4C(=O)NC)n3)c(OC)c(N)c2CC1` [Example 50, 2-[2-(9-Amino-3-ethyl-8-methoxy-2,3,4,5-tetrahydro-1H-benzo[d]azepin-7-ylamino)-5-chloro-pyrimidin-4-ylamino]-N-methyl-benzamide], the pIC50 in assay [1] was under 5.00; in assay [2], over 7.00.

As to `CNC(=O)c1ccccc1Nc1nc(Nc2ccc3c(c2)CCOCC3)ncc1Cl` [Example 51, 2-[5-Chloro-2-(5,6,8,9-tetrahydro-7-oxa-benzocyclohepten-2-ylamino)-pyrimidin-4-ylamino]-N-methyl-benzamide], the pIC50 in assay [1] and in assay [2] was over 7.00 in each case.

With `CCN1CC2OC(C1)c1cc(Nc3ncc(Cl)c(Nc4ccccc4C(=O)NC)n3)ccc12` (stereo not drawn) [Example 61, 2-[5-Chloro-2-(10-ethyl-12-oxa-10-aza-tricyclo[6.3.1.0*2,7*]dodeca-2,4,6-trien-4-ylamino)-pyrimidin-4-ylamino]-N-methyl-benzamide], the pIC50 in assay [1] was 6.00 to 7.00; in assay [2], over 7.00.

On to `CNC(=O)c1ccccc1Nc1nc(Nc2ccc3c(c2)C2CN(C(C)C)CC3O2)ncc1Cl` (stereo not drawn) [Example 62, 2-[5-Chloro-2-(10-isopropyl-12-oxa-10-aza-tricyclo[6.3.1.0*2,7*]dodeca-2,4,6-trien-4-ylamino)-pyrimidin-4-ylamino]-N-methyl-benzamide], for which the pIC50 in assay [1] was 6.00 to 7.00; in assay [2] it was over 7.00.

In the case of `C#CCN1CC2OC(C1)c1cc(Nc3ncc(Cl)c(Nc4ccccc4C(=O)NC)n3)ccc12` (stereo not drawn) [Example 63, 2-[5-Chloro-2-(10-prop-2-ynyl-12-oxa-10-aza-tricyclo[6.3.1.0*2,7*]dodeca-2,4,6-trien-4-ylamino)-pyrimidin-4-ylamino]-N-methyl-benzamide], the figures for the pIC50 in assay [1] and in assay [2] were over 7.00 and 6.00 to 7.00, respectively.

Turning to `CNC(=O)c1ccccc1Nc1nc(Nc2ccc3c(c2)C2CN(S(C)(=O)=O)CC3O2)ncc1Cl` (stereo not drawn) [Example 64, 2-[5-Chloro-2-(10-methanesulfonyl-12-oxa-10-aza-tricyclo[6.3.1.0*2,7*]dodeca-2(7),3,5-trien-4-ylamino)-pyrimidin-4-ylamino]-N-methyl-benzamide], the pIC50 is over 7.00 in assay [1] and 6.00 to 7.00 in assay [2].

As to `CNC(=O)c1ccccc1Nc1nc(Nc2ccc3c(c2)C2CNCC3O2)ncc1Cl` (stereo not drawn) [Example 65, 2-[5-Chloro-2-(12-oxa-10-aza-tricyclo[6.3.1.0*2,7*]dodeca-2(7),3,5-trien-4-ylamino)-pyrimidin-4-ylamino]-N-methyl-benzamide], the pIC50 in assay [1] and in assay [2] was 6.00 to 7.00 in each case.

On to `CCN1CC2OC(C1)c1cc(Nc3ncc(Cl)c(Nc4ccccc4S(=O)(=O)NC)n3)ccc12` (stereo not drawn) [Example 66, 2-[5-Chloro-2-(10-ethyl-12-oxa-10-aza-tricyclo[6.3.1.0*2,7*]dodeca-2(7),3,5-trien-4-ylamino)-pyrimidin-4-ylamino]-N-methyl-benzenesulfonamide], for which the pIC50 was 5.00 to 6.00 in assay [1] and over 7.00 in assay [2].

For `CCOC(=O)N1C2CCC1c1cc(Nc3ncc(Cl)c(Nc4ccccc4C(=O)NC)n3)ccc1C2` (stereo not drawn) [Example 67, 4-[5-Chloro-4-(2-methylcarbamoyl-phenylamino)-pyrimidin-2-ylamino]-12-aza-tricyclo[7.2.1.0*2,7*]dodeca-2(7),3,5-triene-12-carboxylic acid ethyl ester], the pIC50 in assay [1] and in assay [2] was over 7.00 each time.

In the case of `CNC(=O)c1ccccc1Nc1nc(Nc2ccc3c(c2)C2CCC(C3)N2CCOC)ncc1Cl` (stereo not drawn) [Example 68, 2-{5-Chloro-2-[12-(2-methoxy-ethyl)-12-aza-tricyclo[7.2.1.0*2,7*]dodeca-2(7),3,5-trien-4-ylamino]-pyrimidin-4-ylamino}-N-methyl-benzamide], the pIC50 in assay [1] and in assay [2] was over 7.00 throughout.

Take `C#CCN1C2CCC1c1cc(Nc3ncc(Cl)c(Nc4ccccc4C(=O)NC)n3)ccc1C2` (stereo not drawn) [Example 69, 2-[5-Chloro-2-(12-prop-2-ynyl-12-aza-tricyclo[7.2.1.0*2,7*]dodeca-2(7),3,5-trien-4-ylamino)-pyrimidin-4-ylamino]-N-methyl-benzamide]: the pIC50 in assay [1] and in assay [2] was over 7.00 each time.

As for `CNC(=O)c1ccccc1Nc1nc(Nc2ccc3c(c2)C2CCC(C3)N2C(=O)C2CC2)ncc1Cl` (stereo not drawn) [Example 70, 2-[5-Chloro-2-(12-cyclopropanecarbonyl-12-aza-tricyclo[7.2.1.0*2,7*]dodeca-2(7),3,5-trien-4-ylamino)-pyrimidin-4-ylamino]-N-methyl-benzamide], the pIC50 in assay [1] and in assay [2] was over 7.00 in each case.

For the compound `CCN1C2CCC1c1cc(Nc3ncc(Cl)c(N[C@@H]4CCCC[C@H]4NS(C)(=O)=O)n3)ccc1C2` (stereo partly drawn) [Example 71, N-{(1R,2R)-2-[5-Chloro-2-(12-ethyl-12-aza-tricyclo[7.2.1.0*2,7*]dodeca-2(7),3,5-trien-4-ylamino)-pyrimidin-4-ylamino]-cyclohexyl}-methanesulfonamide], the figures for the pIC50 in assay [1] and in assay [2] were 6.00 to 7.00 and over 7.00, respectively.

With `CCN1C2CCC1c1cc(Nc3ncc(Cl)c(Nc4ccccc4NS(C)(=O)=O)n3)ccc1C2` (stereo not drawn) [Example 72, N-{2-[5-Chloro-2-(12-ethyl-12-aza-tricyclo[7.2.1.0*2,7*]dodeca-2(7),3,5-trien-4-ylamino)-pyrimidin-4-ylamino]-phenyl}-methanesulfonamide], the pIC50 in assay [1] is 6.00 to 7.00; in assay [2], over 7.00.

For `CCN1C2CCC1c1c(ccc(Nc3ncc(Cl)c(Nc4ccccc4C(=O)NC)n3)c1Cl)C2` (stereo not drawn) [Example 73, 2-[5-Chloro-2-(3-chloro-12-ethyl-12-aza-tricyclo[7.2.1.0*2,7*]dodeca-2(7),3,5-trien-4-ylamino)-pyrimidin-4-ylamino]-N-methyl-benzamide], the pIC50 in assay [1] is 6.00 to 7.00; in assay [2] it was over 7.00.

`CCOC(=O)N1C2CCC1c1cc(Nc3ncc(Cl)c(Nc4ccccc4C(=O)NC)n3)c(Cl)cc1C2` (stereo not drawn) [Example 74, 5-Chloro-4-[5-chloro-4-(2-methylcarbamoyl-phenylamino)-pyrimidin-2-ylamino]-12-aza-tricyclo[7.2.1.0*2,7*]dodeca-2(7),3,5-triene-12-carboxylic acid ethyl ester]: the results for the pIC50 in assay [1] and in assay [2] were under 5.00 and 6.00 to 7.00, respectively.

`CCOC(=O)N1C2CCC1c1c(ccc(Nc3ncc(Cl)c(Nc4ccccc4C(=O)NC)n3)c1Cl)C2` (stereo not drawn) [Example 75, 3-Chloro-4-[5-chloro-4-(2-methylcarbamoyl-phenylamino)-pyrimidin-2-ylamino]-12-aza-tricyclo[7.2.1.0*2,7*]dodeca-2(7),3,5-triene-12-carboxylic acid ethyl ester]: the pIC50 in assay [1] is 5.00 to 6.00; in assay [2], over 7.00.

Turning to `COCCN1C2CCC1c1cc(Nc3ncc(Cl)c(Nc4ccccc4NS(C)(=O)=O)n3)ccc1C2` (stereo not drawn) [Example 76, N-(2-{5-Chloro-2-[12-(2-methoxy-ethyl)-12-aza-tricyclo[7.2.1.0*2,7*]dodeca-2(7),3,5-trien-4-ylamino]-pyrimidin-4-ylamino}-phenyl)-methanesulfonamide], the pIC50 in assay [1] is 6.00 to 7.00; in assay [2], over 7.00.

Consider `COCCN1C2CCC1c1cc(Nc3ncc(Cl)c(N[C@@H]4CCCC[C@H]4NS(C)(=O)=O)n3)ccc1C2` (stereo partly drawn) [Example 77, N-((1R,2R)-2-{5-Chloro-2-[12-(2-methoxy-ethyl)-12-aza-tricyclo[7.2.1.0*2,7*]dodeca-2(7),3,5-trien-4-ylamino]-pyrimidin-4-ylamino}-cyclohexyl)-methanesulfonamide], for which the pIC50 was 6.00 to 7.00 in assay [1] and over 7.00 in assay [2].

Regarding `CCOC(=O)N1C2CCC1c1cc(C(=O)OC)cc(Nc3ncc(Cl)c(Nc4ccccc4C(=O)NC)n3)c1C2` (stereo not drawn) [Example 78, 6-[5-Chloro-4-(2-methylcarbamoyl-phenylamino)-pyrimidin-2-ylamino]-12-aza-tricyclo[7.2.1.0*2,7*]dodeca-2(7),3,5-triene-4,12-dicarboxylic acid 12-ethyl ester 4-methyl ester], the pIC50 in assay [1] was 6.00 to 7.00; in assay [2], over 7.00.

As to `CNC(=O)c1ccccc1Nc1nc(Nc2ccc3c(c2)C2CCC(C3)N2)ncc1Cl` (stereo not drawn) [Example 79, 2-[2-(12-Aza-tricyclo[7.2.1.0*2,7*]dodeca-2(7),3,5-trien-4-ylamino)-5-chloro-pyrimidin-4-ylamino]-N-methyl-benzamide], the pIC50 in assay [1] and in assay [2] was over 7.00 each time.

As for `CNC(=O)c1ccccc1Nc1nc(Nc2ccc3c(c2)C2CCC(C3)N2C(C)C)ncc1Cl` (stereo not drawn) [Example 80, 2-[5-Chloro-2-(12-isopropyl-12-aza-tricyclo[7.2.1.0*2,7*]dodeca-2(7),3,5-trien-4-ylamino)-pyrimidin-4-ylamino]-N-methyl-benzamide], the pIC50 in assay [1] and in assay [2] was over 7.00 each time.
